IC50 and melting point data for 21 molecules are collected here from patent US6380387B1, “4-Pyrimidinyl-n-acyl-l phenylalanines” (Hoffmann-La Roche Inc., priority 1999, dated 2002).

The IC50 is the concentration at which inhibition is half-maximal. In general, melting point refers to the temperature of the solid-liquid transition.

One data set concerns the target T1, VLA-4 (α4β1 integrin) (Homo sapiens, UniProt P05556+P13612).
T1 construct: Ramos cells bearing cell-surface VLA-4; endogenous in cells; host or cells: Ramos cells
The data set can be described thus: Ramos (VLA-4)/VCAM-1 Cell-Based Screening Assay (cell adhesion). The following applies: Calcein-AM labeled Ramos cells adhering to immobilized recombinant human VCAM-1. As for the experimental part:
Ramos (VLA-4)/VCAM-1 Cell-Based Screening Assay Protocol
Soluble recombinant human VCAM-1 (mixture of 5- and 7-Ig domain) was purified from CHO cell culture media by inmmunoaffinity chromatography and maintained in a solution containing 0.1 M Tris-glycine (pH 7.5), 0.1 M NaCl, 5 mM EDTA, 1 mM PMSF, […] NaN3 and 10 μg/mL leupeptin. Calcein-AM was purchased from Molecular Probes Inc.
VLA-4 (α4β1 integrin) antagonist activity, defined as ability to compete with cell-surface VLA-4 for binding to immobilized VCAM-1, was quantitated using a Ramos-VCAM-1 cell adhesion assay. Ramos cells bearing cell-surface VLA-4, were labeled with a fluorescent dye (Calcein-AM) and allowed to bind VCAM-1 in the presence or absence of test compounds. A reduction in fluorescence intensity associated with adherent cells (% inhibition) reflected competitive inhibition of VLA-4 mediated cell adhesion by the test compound.
Initially, this entailed coating 96 well plates (Nunc Maxisorp) with recombinant human VCAM-1 (100 ng in 100 μl PBS), sealing each plate and allowing the plates to stand at 4° C. for ≈18 hr. The VCAM-coated plates were subsequently washed twice with 0.05% Tween-20 in PBS, and then blocked for 1 hr (room temperature) with 200 μl of Blocking Buffer (1% BSA/0.02% thimerosal) to reduce non-specific binding. Following the incubation with Blocking Buffer, plates were inverted, blotted and the remaining buffer aspirated. Each plate was then washed with 300 μl PBS, inverted and the remaining PBS aspirated.
Test compounds were dissolved in 100% DMSO and then diluted 1:25 in VCAM Cell Adhesion Assay Buffer (4 mM CaCl2, 4 mM MgCl2 in 50 mM TRIS-HCl, pH 7.5) (final DMSO=4%). A series of eight 1:4 dilutions were performed for each compound (general concentration range of 1 nM-12,500 nM). 100 μl/well of each dilution was added to the VCAM-coated plates, followed by 100 μl of Ramos cells (200,000 cells/well in 1% BSA/PBS). Plates containing test compounds and Ramos cells were allowed to incubate for 45 min at room temperature, after which 165 μl/well PBS was added. Plates were inverted to remove non-adherent cells, blotted and 300 μl/well PBS added. Plates were again inverted, blotted and the remaining buffer gently aspirated. 100 μl Lysis Buffer (0.1% SDS in 50 mM TRIS-HCl, pH 8.5) was added to each well and agitated for 2 min on a rotary shaking platform. The plates were then read for fluorescence intensity on a Cytofluor 2300 (Millipore) fluorecence measurement system (excitation=485 nm, emission=530 nm). The results are shown in the following Table II, where (A=IC50<100 nM, B=IC50<10000 nM): […]

T1 sequence (P13612 34-1032): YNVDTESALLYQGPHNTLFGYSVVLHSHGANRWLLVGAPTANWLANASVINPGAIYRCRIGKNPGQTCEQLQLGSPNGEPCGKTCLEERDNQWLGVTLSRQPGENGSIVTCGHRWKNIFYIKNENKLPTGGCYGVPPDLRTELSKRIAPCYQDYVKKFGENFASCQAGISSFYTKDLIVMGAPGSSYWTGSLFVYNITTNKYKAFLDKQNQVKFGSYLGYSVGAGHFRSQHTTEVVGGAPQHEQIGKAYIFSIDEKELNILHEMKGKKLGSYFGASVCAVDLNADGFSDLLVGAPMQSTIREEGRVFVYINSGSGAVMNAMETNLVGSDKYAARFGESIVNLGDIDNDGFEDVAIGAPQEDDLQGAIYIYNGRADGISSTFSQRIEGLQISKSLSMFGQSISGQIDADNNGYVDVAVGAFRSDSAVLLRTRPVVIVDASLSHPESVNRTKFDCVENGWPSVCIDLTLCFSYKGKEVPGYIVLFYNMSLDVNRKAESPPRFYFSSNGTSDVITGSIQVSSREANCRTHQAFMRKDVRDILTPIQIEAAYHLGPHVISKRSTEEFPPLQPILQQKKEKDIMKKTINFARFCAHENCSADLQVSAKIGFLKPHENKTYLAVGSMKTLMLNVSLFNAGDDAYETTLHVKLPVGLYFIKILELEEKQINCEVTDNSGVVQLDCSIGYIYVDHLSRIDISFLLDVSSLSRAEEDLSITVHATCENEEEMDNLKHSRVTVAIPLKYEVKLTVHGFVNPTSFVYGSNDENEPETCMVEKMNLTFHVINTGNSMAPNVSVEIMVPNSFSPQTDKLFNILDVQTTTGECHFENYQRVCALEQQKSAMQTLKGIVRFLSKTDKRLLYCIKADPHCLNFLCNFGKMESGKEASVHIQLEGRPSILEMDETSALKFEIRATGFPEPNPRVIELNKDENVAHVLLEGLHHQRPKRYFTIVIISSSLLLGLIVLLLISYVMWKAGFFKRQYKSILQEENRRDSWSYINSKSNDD
T1 sequence (P05556 21-798): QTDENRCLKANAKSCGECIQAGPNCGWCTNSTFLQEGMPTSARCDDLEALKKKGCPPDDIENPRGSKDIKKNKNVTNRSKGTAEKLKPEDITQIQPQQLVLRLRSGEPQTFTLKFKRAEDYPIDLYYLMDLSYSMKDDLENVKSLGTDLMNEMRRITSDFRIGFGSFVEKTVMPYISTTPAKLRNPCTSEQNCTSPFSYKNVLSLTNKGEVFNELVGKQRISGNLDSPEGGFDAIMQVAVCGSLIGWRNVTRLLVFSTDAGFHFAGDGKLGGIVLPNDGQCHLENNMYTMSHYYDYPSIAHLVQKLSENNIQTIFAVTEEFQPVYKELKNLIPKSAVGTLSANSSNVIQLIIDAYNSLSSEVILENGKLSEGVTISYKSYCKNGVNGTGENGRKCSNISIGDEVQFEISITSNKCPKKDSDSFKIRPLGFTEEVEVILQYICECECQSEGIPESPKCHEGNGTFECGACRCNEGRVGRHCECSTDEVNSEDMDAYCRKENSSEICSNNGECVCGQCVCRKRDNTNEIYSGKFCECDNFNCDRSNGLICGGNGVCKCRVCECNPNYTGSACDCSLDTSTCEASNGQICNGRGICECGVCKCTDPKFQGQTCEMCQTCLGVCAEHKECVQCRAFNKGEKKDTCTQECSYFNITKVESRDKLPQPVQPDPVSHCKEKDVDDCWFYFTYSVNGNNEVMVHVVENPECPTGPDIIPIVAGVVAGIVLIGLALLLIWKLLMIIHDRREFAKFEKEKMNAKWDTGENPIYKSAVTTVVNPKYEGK

For `Cc1c(-c2ccc(C[C@H](NC(=O)c3c(Cl)cccc3Cl)C(=O)O)cc2)c(=O)n(C)c(=O)n1C` [Example 6, N-[(2,6-dichlorophenyl)carbonyl]-4-(1,3,6-trimethyl-2,4-dioxo-5-pyrimidinyl)-L-phenylalanine], the IC50 at VLA-4 (α4β1 integrin) was under 100 nM.
On the same count and under the same terms, the same measure for `COCCC1(C(=O)N[C@@H](Cc2ccc(-c3c(C)n(C)c(=O)n(C)c3=O)cc2)C(=O)O)CCCC1` [Example 7, N-[[1-(2-methoxyethyl)cyclopentyl]carbonyl]-4-(1,3,6-trimethyl-2,4-dioxo-5-pyrimidinyl)-L-phenylalanine]: under 100 nM.
In turn, `Cc1cccc(Br)c1C(=O)N[C@@H](Cc1ccc(-c2c(C)n(C)c(=O)n(C)c2=O)cc1)C(=O)O` [Example 8, N-[(2-bromo-6-methylphenyl)carbonyl]-4-(1,3,6-trimethyl-2,4-dioxo-5-pyrimidinyl)-L-phenylalanine] had a melting point of 240 to 242 °C. Further, the half-inhibitory concentration (IC50) at VLA-4 (α4β1 integrin) was under 100 nM.
With `Cc1cccc(Cl)c1C(=O)N[C@@H](Cc1ccc(-c2c(C)n(C)c(=O)n(C)c2=O)cc1)C(=O)O` [Example 9, N-[(2-chloro-6-methylphenyl)carbonyl]-4-(1,3,6-trimethyl-2,4-dioxo-5-pyrimidinyl)-L-phenylalanine], the half-maximal inhibitory concentration (IC50) at VLA-4 (α4β1 integrin) was under 100 nM.
With `CCc1cccc(C)c1C(=O)N[C@@H](Cc1ccc(-c2c(C)n(C)c(=O)n(C)c2=O)cc1)C(=O)O` [Example 10, N-[(2-ethyl-6-methylphenyl)carbonyl]-4-(1,3,6-trimethyl-2,4-dioxo-5-pyrimidinyl)-L-phenylalanine], the melting point is 127 to 133 °C. For the same molecule, the IC50 at VLA-4 (α4β1 integrin) is under 100 nM.
Consider `Cc1cccc(C(C)C)c1C(=O)N[C@@H](Cc1ccc(-c2c(C)n(C)c(=O)n(C)c2=O)cc1)C(=O)O` [Example 11, N-[[2-(2-methylethyl)-6-methylphenyl]carbonyl]-4-(1,3,6-trimethyl-2,4-dioxo-5-pyrimidinyl)-L-phenylalanine], for which, at VLA-4 (α4β1 integrin), the half-maximal inhibitory concentration (IC50) is under 100 nM.
On the same count and under the same terms, the same measure for `Cc1c(-c2ccc(C[C@H](NC(=O)c3c(F)cccc3F)C(=O)O)cc2)c(=O)n(C)c(=O)n1C` [Example 12, N-[(2,6-difluorophenyl)carbonyl]-4-(1,3,6-trimethyl-2,4-dioxo-5-pyrimidinyl)-L-phenylalanine]: under 100 nM.
Consider `Cc1c(-c2ccc(C[C@H](NC(=O)c3c(F)cccc3C(F)(F)F)C(=O)O)cc2)c(=O)n(C)c(=O)n1C` [Example 13, N-[(2-fluoro-6-(trifluoromethyl)phenyl)carbonyl]-4-(1,3,6-trimethyl-2,4-dioxo-5-pyrimidinyl)-L-phenylalanine], for which the melting point fell in the range of 218 to 220 °C. Moreover, on VLA-4 (α4β1 integrin), the IC50 is under 100 nM.
Consider `Cc1c(-c2ccc(C[C@H](NC(=O)c3c(C(C)C)cccc3C(C)C)C(=O)O)cc2)c(=O)n(C)c(=O)n1C` [Example 14, N-[[2,6-di-(2-methylethyl)phenyl]carbonyl]-4-(1,3,6-trimethyl-2,4-dioxo-5-pyrimidinyl)-L-phenylalanine], for which, at VLA-4 (α4β1 integrin), the IC50 was under 10000 nM.
In the case of `CCc1cccc(Cl)c1C(=O)N[C@@H](Cc1ccc(-c2c(C)n(C)c(=O)n(C)c2=O)cc1)C(=O)O` [Example 15, N-[(2-chloro-6-ethylphenyl)carbonyl]-4-(1,3,6-trimethyl-2,4-dioxo-5-pyrimidinyl)-L-phenylalanine], the melting point was 187 to 190 °C. The IC50 at VLA-4 (α4β1 integrin) was under 100 nM.
In the same order, the values of `CCCc1cccc(Cl)c1C(=O)N[C@@H](Cc1ccc(-c2c(C)n(C)c(=O)n(C)c2=O)cc1)C(=O)O` [Example 16, N-[(2-chloro-6-propylphenyl)carbonyl]-4-(1,3,6-trimethyl-2,4-dioxo-5-pyrimidinyl)-L-phenylalanine] are 225 to 227 °C and under 100 nM.
With `CCn1c(C)c(-c2ccc(C[C@H](NC(=O)c3c(Cl)cccc3Cl)C(=O)O)cc2)c(=O)n(CC)c1=O` [Example 18, N-[(2,6-dichlorophenyl)carbonyl]-4-(1,3-diethyl-6-methyl-2,4-dioxo-5-pyrimidinyl)-L-phenylalanine], the IC50 at VLA-4 (α4β1 integrin) is under 100 nM.
Take `CCn1c(C)c(-c2ccc(C[C@H](NC(=O)c3c(C)cccc3Cl)C(=O)O)cc2)c(=O)n(CC)c1=O` [Example 19, N-[(2-chloro-6-methylphenyl)carbonyl]-4-(1,3-diethyl-6-methyl-2,4-dioxo-5-pyrimidinyl)-L-phenylalanine]: the IC50 on VLA-4 (α4β1 integrin) was under 100 nM.
As for `CCn1c(C)c(-c2ccc(C[C@H](NC(=O)C3(CCOC)CCCC3)C(=O)O)cc2)c(=O)n(CC)c1=O` [Example 20, 4-(1,3-diethyl-6-methyl-2,4-dioxo-5-pyrimidinyl)-N-[[1-(2-methoxyethyl)cyclopentyl]carbonyl]-L-phenylalanine], the IC50 on VLA-4 (α4β1 integrin) was under 100 nM.
Regarding `Cn1c(C(F)(F)F)c(-c2ccc(C[C@H](NC(=O)c3c(Cl)cccc3Cl)C(=O)O)cc2)c(=O)n(C)c1=O` [Example 21, N-[1-(2,6-dichlorophenyl)carbonyl]-4-(1,3-dimethyl-2,4-dioxo-6-(trifluoromethyl)-5-pyrimidinyl)-L-phenylalanine], the melting point was in the range of 125 to 128 °C. For the same molecule, at VLA-4 (α4β1 integrin), the IC50 was under 100 nM.
The like results for `Cc1cccc(Cl)c1C(=O)N[C@@H](Cc1ccc(-c2c(C(F)(F)F)n(C)c(=O)n(C)c2=O)cc1)C(=O)O` [Example 22, N-[(2-chloro-6-methylphenyl)carbonyl]-4-[1,3-dimethyl-2,4-dioxo-6-(trifluoromethyl)-5-pyrimidinyl]-L-phenylalanine] were, in that order, 243 to 247 °C and under 100 nM.
`Cn1c(C(F)(F)F)c(-c2ccc(C[C@H](NC(=O)c3c(F)cccc3C(F)(F)F)C(=O)O)cc2)c(=O)n(C)c1=O` [Example 23, N-[[2-fluoro-6-(trifluoromethyl)phenyl]carbonyl]-4-(1,3-dimethyl-2,4-dioxo-6-(trifluoromethyl)-5-pyrimidinyl)-L-phenylalanine] registered a melting point of 122 to 125 °C. In addition, the IC50 at VLA-4 (α4β1 integrin) is under 100 nM.
The like results for `Cc1cc(C[C@H](NC(=O)c2c(C)cccc2Cl)C(=O)O)ccc1-c1cn(C)c(=O)n(C)c1=O` [Example 24, N-[(2-chloro-6-methylphenyl)carbonyl]-4-(1,3-dimethyl-2,4-dioxo-5-pyrimidinyl)-3-methyl-L-phenylalanine] were, in that order, 109 to 111 °C and under 10000 nM.
With `Cc1cc(C[C@H](NC(=O)c2c(Cl)cccc2Cl)C(=O)O)ccc1-c1cn(C)c(=O)n(C)c1=O` [Example 25, N-[(2,6-dichlorophenyl)carbonyl]-4-(1,3-dimethyl-2,4-dioxo-5-pyrimidinyl)-3-methyl-L-phenylalanine], the IC50 on VLA-4 (α4β1 integrin) was under 100 nM.
Same read-out and setting: the figure for `Cc1cc(C[C@H](NC(=O)c2c(Cl)cccc2Cl)C(=O)O)ccc1-c1c(C)n(C)c(=O)n(C)c1=O` [Example 26, N-[(2,6-dichlorophenyl)carbonyl]-4-(1,3,6-trimethyl-2,4-dioxo-5-pyrimidinyl)-3-methyl-L-phenylalanine] is under 10000 nM.
Still for that read-out and setting: the figure for `CCOC(=O)[C@H](Cc1ccc(-c2c(C)n(C)c(=O)n(C)c2=O)cc1)NC(=O)c1c(Cl)cccc1Cl` [Example 27, N-[(2,6-dichlorophenyl)carbonyl]-4-(1,3,6-trimethyl-2,4-dioxo-5-pyrimidinyl)-L-phenylalanine ethyl ester] is under 10000 nM.
